{"source": "paper PMC5674494", "about": "“Use of Cyclic Backbone NGR-Based SPECT to Increase Efficacy of Postmyocardial Infarction Angiogenesis Imaging” (Contrast Media & Molecular Imaging, 2017)", "key": {"[1]": {"assay": "Micro-SPECT myocardial perfusion, SUV of 99mTc-sestamibi in heart segments", "assay_type": "in vivo, Swiss mice", "conditions": "i.v., last of 4 15-min SPECT frames, mean ± SEM", "description": "In 10–12-week-old male Swiss mice, we induced MI by ligation of the left anterior descending coronary artery (LAD) as described before to test coNGR (n = 5) or co(NGR)4 (n = 8). […] SPECT imaging was performed 7 days after MI or sham surgery. All animals were held under the guidelines of the animal care facility (Maastricht University). All animal experiments were approved by the Committee for Animal Welfare of Maastricht University.\nMice were anesthetized with isoflurane (induction 2.5%; maintenance 1.5%), a catheter was placed in a tail vein, and animals were positioned in the SPECT camera (MILabs, Utrecht, The Netherlands). Prior to image acquisition, a bolus injection of ^99mTc-sestamibi and ^111In-coNGR or ^111In-co(NGR)4 was given intravenously (i.v.) in a maximum volume of 200 µL. Table S1 in Supplementary Material available online at https://doi.org/10.1155/2017/8638549 provides an overview of the average injected dose. Immediately after injection, 4 consecutive time frames of 15 min each were acquired. For image quantification we used the last of these frames.\nAcquired list mode data was reconstructed using MILabs reconstruction software (version 2.51) employing the POS-EM algorithm (6 iterations and 16 subsets, reconstructed at a voxel size of 0.4 mm). ^99mTc and ^111In images were reconstructed by selecting photo peak and background energy levels as described before.\nTo allow quantification of imaging agent uptake, in vivo isotope-specific conversion factors (CF) were determined for the 0.6 mm collimator in a representative phantom with a known activity. Using the previously described method the following conversion factors (CF), CF99mTc 612 MBq/mL and CF111In 643 MBq/mL, were found.\nPMOD 3.7 cardiac tool PCARD (PMOD technologies, Zürich, Switzerland) was used to segment the heart in the 17-segment model. Uptake per segment was subsequently expressed as a mean standardized uptake value (SUVmean), also using the previously described method. For body weight, we assumed that 1 g equalled 1 mL."}, "[2]": {"assay": "Octanol/water partition coefficient (logP)", "assay_type": "physicochemical", "conditions": "111In-labeled tracer, separate experiment 2 of 3, N = 3, method as ref 22", "description": "The logP value of each compound was determined in three separate experiments as described previously."}, "in vitro": {"assay": "in vitro", "assay_type": "in vitro ADME", "conditions": "human, whole blood", "description": "^111[…], or ^111In-co(NGR)4 was added to […] human blood in heparin (BD Biosciences, […], The Netherlands). Blood stability was tested at 0, 10, 30, and 50 min. For each time point imaging agents were separated from blood cells and proteins by adding 0.5 mL MeCN (VWR International BV, Breda, The Netherlands) to 0.5 mL blood sample followed by centrifugation (2,000 ×g, 3 min). Supernatant samples were analyzed by HPLC using the above-mentioned method."}, "[3]": {"conditions": "MI mice (n = 5), coNGR group, 7 days after LAD ligation"}, "[4]": {"conditions": "MI mice (n = 8), co(NGR)4 group, 7 days after LAD ligation"}, "[5]": {"conditions": "Sham-operated mice (n = 6), co(NGR)4 group, 7 days after surgery"}}, "note": "Positions of bridges follow the written chain, without caps; N, C: chain ends. Residues, ends and D or L forms follow the SMILES beside them. *: point of attachment. X1 = N[C@@H](CSC1CC(=O)N(CC2CCC(C(=O)NCCCCC(C(=O)O)N(CCN(CC(=O)O)CC(=O)O)CCN(CC(=O)O)CC(=O)O)CC2)C1=O)C(=O)*"}
{"smiles": "[C-]#[N+]CC(C)(C)OC.[C-]#[N+]CC(C)(C)OC.[C-]#[N+]CC(C)(C)OC.[C-]#[N+]CC(C)(C)OC.[C-]#[N+]CC(C)(C)OC.[C-]#[N+]CC(C)(C)OC.[Tc]", "note": "[^99mTc-sestamibi]", "values": [{"measurement": "SUV of 99mTc-sestamibi, segment 1. Basal anterior", "setting": "[1]; [3]", "result": "2.46 ± 0.45"}, {"measurement": "SUV of 99mTc-sestamibi, segment 2. Basal anteroseptal", "setting": "[1]; [3]", "result": "2.28 ± 0.39"}, {"measurement": "SUV of 99mTc-sestamibi, segment 3. Basal inferoseptal", "setting": "[1]; [3]", "result": "2.33 ± 0.38"}, {"measurement": "SUV of 99mTc-sestamibi, segment 4. Basal inferior", "setting": "[1]; [3]", "result": "2.60 ± 0.56"}, {"measurement": "SUV of 99mTc-sestamibi, segment 5. Basal inferolateral", "setting": "[1]; [3]", "result": "2.23 ± 0.63"}, {"measurement": "SUV of 99mTc-sestamibi, segment 6. Basal anterolateral", "setting": "[1]; [3]", "result": "2.14 ± 0.52"}, {"measurement": "SUV of 99mTc-sestamibi, segment 7. Mid anterior", "setting": "[1]; [3]", "result": "1.41 ± 0.28"}, {"measurement": "SUV of 99mTc-sestamibi, segment 8. Mid anteroseptal", "setting": "[1]; [3]", "result": "2.46 ± 0.39"}, {"measurement": "SUV of 99mTc-sestamibi, segment 9. Mid inferoseptal", "setting": "[1]; [3]", "result": "2.27 ± 0.53"}, {"measurement": "SUV of 99mTc-sestamibi, segment 10. Mid inferior", "setting": "[1]; [3]", "result": "1.64 ± 0.67"}, {"measurement": "SUV of 99mTc-sestamibi, segment 11. Mid inferolateral", "setting": "[1]; [3]", "result": "0.75 ± 0.24"}, {"measurement": "SUV of 99mTc-sestamibi, segment 12. Mid anterolateral", "setting": "[1]; [3]", "result": "0.42 ± 0.09"}, {"measurement": "SUV of 99mTc-sestamibi, segment 13. Apical anterior", "setting": "[1]; [3]", "result": "0.71 ± 0.30"}, {"measurement": "SUV of 99mTc-sestamibi, segment 14. Apical septal", "setting": "[1]; [3]", "result": "1.67 ± 0.39"}, {"measurement": "SUV of 99mTc-sestamibi, segment 15. Apical inferior", "setting": "[1]; [3]", "result": "1.30 ± 0.31"}, {"measurement": "SUV of 99mTc-sestamibi, segment 16. Apical lateral", "setting": "[1]; [3]", "result": "0.59 ± 0.26"}, {"measurement": "SUV of 99mTc-sestamibi, segment 17. Apex", "setting": "[1]; [3]", "result": "0.98 ± 0.35"}, {"measurement": "SUV of 99mTc-sestamibi, segment 1. Basal anterior", "setting": "[1]; [4]", "result": "2.60 ± 0.70"}, {"measurement": "SUV of 99mTc-sestamibi, segment 2. Basal anteroseptal", "setting": "[1]; [4]", "result": "3.68 ± 0.42"}, {"measurement": "SUV of 99mTc-sestamibi, segment 3. Basal inferoseptal", "setting": "[1]; [4]", "result": "3.97 ± 0.49"}, {"measurement": "SUV of 99mTc-sestamibi, segment 4. Basal inferior", "setting": "[1]; [4]", "result": "3.06 ± 0.54"}, {"measurement": "SUV of 99mTc-sestamibi, segment 5. Basal inferolateral", "setting": "[1]; [4]", "result": "1.66 ± 0.47"}, {"measurement": "SUV of 99mTc-sestamibi, segment 6. Basal anterolateral", "setting": "[1]; [4]", "result": "1.60 ± 0.55"}, {"measurement": "SUV of 99mTc-sestamibi, segment 7. Mid anterior", "setting": "[1]; [4]", "result": "1.35 ± 0.31"}, {"measurement": "SUV of 99mTc-sestamibi, segment 8. Mid anteroseptal", "setting": "[1]; [4]", "result": "3.56 ± 0.47"}, {"measurement": "SUV of 99mTc-sestamibi, segment 9. Mid inferoseptal", "setting": "[1]; [4]", "result": "3.57 ± 0.68"}, {"measurement": "SUV of 99mTc-sestamibi, segment 10. Mid inferior", "setting": "[1]; [4]", "result": "2.21 ± 0.52"}, {"measurement": "SUV of 99mTc-sestamibi, segment 11. Mid inferolateral", "setting": "[1]; [4]", "result": "0.68 ± 0.07"}, {"measurement": "SUV of 99mTc-sestamibi, segment 12. Mid anterolateral", "setting": "[1]; [4]", "result": "0.62 ± 0.07"}, {"measurement": "SUV of 99mTc-sestamibi, segment 13. Apical anterior", "setting": "[1]; [4]", "result": "1.04 ± 0.25"}, {"measurement": "SUV of 99mTc-sestamibi, segment 14. Apical septal", "setting": "[1]; [4]", "result": "2.68 ± 0.30"}, {"measurement": "SUV of 99mTc-sestamibi, segment 15. Apical inferior", "setting": "[1]; [4]", "result": "2.06 ± 0.24"}, {"measurement": "SUV of 99mTc-sestamibi, segment 16. Apical lateral", "setting": "[1]; [4]", "result": "0.67 ± 0.11"}, {"measurement": "SUV of 99mTc-sestamibi, segment 17. Apex", "setting": "[1]; [4]", "result": "1.25 ± 0.32"}, {"measurement": "SUV of 99mTc-sestamibi, segment 1. Basal anterior", "setting": "[1]; [5]", "result": "2.91 ± .026"}, {"measurement": "SUV of 99mTc-sestamibi, segment 2. Basal anteroseptal", "setting": "[1]; [5]", "result": "2.72 ± 0.32"}, {"measurement": "SUV of 99mTc-sestamibi, segment 3. Basal inferoseptal", "setting": "[1]; [5]", "result": "2.89 ± 0.33"}, {"measurement": "SUV of 99mTc-sestamibi, segment 4. Basal inferior", "setting": "[1]; [5]", "result": "3.07 ± 0.33"}, {"measurement": "SUV of 99mTc-sestamibi, segment 5. Basal inferolateral", "setting": "[1]; [5]", "result": "3.03 ± 0.30"}, {"measurement": "SUV of 99mTc-sestamibi, segment 6. Basal anterolateral", "setting": "[1]; [5]", "result": "2.89 ± 0.20"}, {"measurement": "SUV of 99mTc-sestamibi, segment 7. Mid anterior", "setting": "[1]; [5]", "result": "3.00 ± 0.22"}, {"measurement": "SUV of 99mTc-sestamibi, segment 8. Mid anteroseptal", "setting": "[1]; [5]", "result": "3.10 ± 0.28"}, {"measurement": "SUV of 99mTc-sestamibi, segment 9. Mid inferoseptal", "setting": "[1]; [5]", "result": "3.16 ± 0.26"}, {"measurement": "SUV of 99mTc-sestamibi, segment 10. Mid inferior", "setting": "[1]; [5]", "result": "3.03 ± 0.29"}, {"measurement": "SUV of 99mTc-sestamibi, segment 11. Mid inferolateral", "setting": "[1]; [5]", "result": "3.06 ± 0.34"}, {"measurement": "SUV of 99mTc-sestamibi, segment 12. Mid anterolateral", "setting": "[1]; [5]", "result": "2.77 ± 0.22"}, {"measurement": "SUV of 99mTc-sestamibi, segment 13. Apical anterior", "setting": "[1]; [5]", "result": "2.93 ± 0.22"}, {"measurement": "SUV of 99mTc-sestamibi, segment 14. Apical septal", "setting": "[1]; [5]", "result": "3.23 ± 0.24"}, {"measurement": "SUV of 99mTc-sestamibi, segment 15. Apical inferior", "setting": "[1]; [5]", "result": "2.88 ± 0.32"}, {"measurement": "SUV of 99mTc-sestamibi, segment 16. Apical lateral", "setting": "[1]; [5]", "result": "2.44 ± 0.20"}, {"measurement": "SUV of 99mTc-sestamibi, segment 17. Apex", "setting": "[1]; [5]", "result": "2.71 ± 0.25"}]}
{"smiles": "CC(=O)N[C@H]1CSSC[C@@H](C(=O)NCC(=O)NCC(=O)N[C@@H](CCCCNC(=O)[C@@H](N)CSC2CC(=O)N(CC3CCC(C(=O)NCCCCC(C(=O)O)N(CCN(CC(=O)O)CC(=O)O)CCN(CC(=O)O)CC(=O)O)CC3)C2=O)C(N)=O)NC(=O)[C@H](CCCNC(=N)N)NC(=O)CNC(=O)[C@H](CC(N)=O)NC1=O", "note": "(stereo partly drawn) [cNGR, cyclic(NAc-Cys-Asn-Gly-Arg-Cys-Gly-Gly-Lys)] (Ac-CNGRCGGK(X1)-NH2; disulfide 1-5)", "values": [{"measurement": "logP2", "setting": "[2]", "result": "−4.17 ± 0.01"}, {"measurement": "remaining at 50 min", "setting": "in vitro", "result": 7.55, "unit": "%"}]}
